# Values of other authors in patent publication US20050282937A1, “Electrochemical compatibilizer and hydrophobic wetting agent for fiber reinforced vinyl esters and related thermosets” (priority 2004, published 2005).
# Read-outs that look alike come from different tables or passages of the source.
# Experiments:
# [1] = system: Staphlococcus epidermidis; conditions: Bacteria associated with polymeric medical devices, strain ATCC12228
# Staphlococcus hyicus = conditions: Bacteria associated with polymeric medical devices, strain ATCC27844
# Escherichia coli [2] = conditions: Bacteria associated with polymeric medical devices
# Porphyromonas gingivalis = conditions: Oral Bacteria, laboratory strain OMZ309
# Listeria monocytogenes = conditions: Bacteria associated with polymeric medical devices, strain ATCC15313
# [3] = system: Corynebacterium (Propionibacterium) acnes; conditions: Bacteria associated with polymeric medical devices, strain ATCC6919
# [4] = over a 24-hour period, thermoset dental compound containing 1.0 wt % additive
# W. recta = conditions: Fresh isolate from human plaque, Colgate-Palmolive data, strain not given
# C. ochracea = conditions: Oral Bacteria, laboratory strain NCTC11654
# Laboratory rats = conditions: ingestion
# Staphylococcus aureus = conditions: catheters of ethylvinyl acetate and polypropylene, up to 2.0 wt %, rabbits
# Streptococcus mutans [5] = conditions: Oral Bacteria, laboratory strain 6715
# Bacteroides intermedius = conditions: Oral Bacteria
# Capnocytophaga spp = conditions: Fresh isolate from human plaque, Colgate-Palmolive data
# [6] = catheters of ethylvinyl acetate and polypropylene, up to 2.0 wt %
# [7] = system: Peptococcus asacchrolyticus; conditions: Oral Bacteria, laboratory strain NCTC
# Escherichia coli [8] = conditions: catheters of ethylvinyl acetate and polypropylene, up to 2.0 wt %, rabbits
# Staphlococcus hominus = conditions: Bacteria associated with polymeric medical devices, strain ATCC27844
# [9] = system: Staphlococcus saprohyticus; conditions: Bacteria associated with polymeric medical devices, strain NCTC7292
# S. milleri = conditions: Fresh isolate from human plaque, Colgate-Palmolive data
# Steptococcus sanguis = conditions: Oral Bacteria, laboratory strain 34
# [10] = system: Peptostreptococcus micros; conditions: Fresh isolate from human plaque, Colgate-Palmolive data, strain 1422
# [11] = system: Actinomyces actinomycetemcomitans; conditions: Fresh isolate from human plaque, Colgate-Palmolive data
# Staphlococcus aureus = conditions: Bacteria associated with polymeric medical devices
# [12] = system: Staphylococcus epidermidis; conditions: catheters of ethylvinyl acetate and polypropylene, up to 2.0 wt %, rabbits
# Salmonella enteritidis = conditions: Bacteria associated with polymeric medical devices, strain A
# Actinomyces naeslundi = conditions: Oral Bacteria
# Pseudomonas aeruginosa = conditions: Bacteria associated with polymeric medical devices
# P. anaerobius = conditions: Fresh isolate from human plaque, Colgate-Palmolive data
# [13] = system: Actinomyces odontolyticus
# Actinomyces israeli = conditions: Oral Bacteria, laboratory strain NCTC8047
# [14] = system: Actinobacillus actinomycesemcomitans; conditions: Oral Bacteria, laboratory strain Y4
# Streptococcus mutans [15] = conditions: dental composite, 1.0 wt % concentration, twenty four-hour period
# S. mitior = conditions: Fresh isolate from human plaque, Colgate-Palmolive data
# Lactobacilli = conditions: Oral Bacteria, strain not given
# Bacteroides gingivalis = conditions: Oral Bacteria, laboratory strain 381
# Steptococcus sobrinus = conditions: Oral Bacteria, laboratory strain OMZ176
# Streptococcus mitor = conditions: Oral Bacteria
# Candida albicans = conditions: Yeast
# P. acnes = conditions: Fresh isolate from human plaque, Colgate-Palmolive data, strain 1305
structure (smiles),measurement,setting,value
Oc1cc(Cl)ccc1Oc1ccc(Cl)cc1Cl [Triclosan],Minimum inhibitory Triclosan concentration,[1],<0.125 µg/mL
same,solubility (sparingly soluble),at 20 C°,0.001 grams per liter
same,Triclosan water solubility,at 37 C. °,Triclosan water solubility approximately 30 ug/ml at 37 C. °
same,water solubility,at 50 C°,40 µg/mL
same,Minimum inhibitory Triclosan concentration,Staphlococcus hyicus,0.03 µg/mL
same,Minimum inhibitory Triclosan concentration,Escherichia coli [2]; strain ATCC9661,0.3 µg/mL
same,Minimum inhibitory Triclosan concentration,Escherichia coli [2]; strain ATCC43888,0.1 µg/mL
same,Minimum inhibitory Triclosan concentration,Escherichia coli [2]; strain NCTC8196,0.02 µg/mL
same,Minimum inhibitory Triclosan concentration,Escherichia coli [2]; strain NCTC11186,0.5 µg/mL
same,Minimum inhibitory Triclosan concentration,Porphyromonas gingivalis,2.0 µg/mL
same,Minimum inhibitory Triclosan concentration,Listeria monocytogenes,1.0 µg/mL
same,Minimum inhibitory Triclosan concentration,[3],3.0 µg/mL
same,Triclosan release in water,[4],0.02 ppm
same,Minimum inhibitory Triclosan concentration,W. recta,0.8 µg/mL
same,Minimum inhibitory Triclosan concentration,C. ochracea,<0.4 µg/mL
same,amount ingested without ill effect,Laboratory rats,greater than 5000 mg/Kg
same,effectiveness against Staphylococcus aureus,Staphylococcus aureus,effectiveness
same,Minimum inhibitory Triclosan concentration,"Actinomyces viscosus; Fresh isolate from human plaque, Colgate-Palmolive data, strain 1218",0.8 µg/mL
same,Minimum inhibitory Triclosan concentration,"Actinomyces viscosus; Oral Bacteria, laboratory strain NCTC10951",0.8 µg/mL
same,Minimum inhibitory Triclosan concentration,"Actinomyces viscosus; Oral Bacteria, laboratory strain T14V",5.0 µg/mL
same,Minimum inhibitory Triclosan concentration,Streptococcus mutans [5],5.0 µg/mL
same,Minimum inhibitory Triclosan concentration,Bacteroides intermedius; laboratory strain 581,2.5 µg/mL
same,Minimum inhibitory Triclosan concentration,Bacteroides intermedius; laboratory strain NCTC9336,0.4 µg/mL
same,Minimum inhibitory Triclosan concentration,Capnocytophaga spp; strain 287,0.8 µg/mL
same,Minimum inhibitory Triclosan concentration,Capnocytophaga spp; strain 290,2.3 µg/mL
same,Minimum inhibitory Triclosan concentration,Capnocytophaga spp; strain 310,0.8 µg/mL
same,leaching,[6],high leaching
same,Minimum inhibitory Triclosan concentration,[7],<0.6 µg/mL
same,effectiveness against Escherichia coli,Escherichia coli [8],effectiveness
same,Minimum inhibitory Triclosan concentration,Staphlococcus hominus,1.0 µg/mL
same,Minimum inhibitory Triclosan concentration,[9],0.1 µg/mL
same,Minimum inhibitory Triclosan concentration,S. milleri; strain 1339,2.3 µg/mL
same,Minimum inhibitory Triclosan concentration,S. milleri; strain 1391,2.3 µg/mL
same,Minimum inhibitory Triclosan concentration,Steptococcus sanguis,2.0 µg/mL
same,Minimum inhibitory Triclosan concentration,[10],3.1 µg/mL
same,Minimum inhibitory Triclosan concentration,"Veillonella parvula; Fresh isolate from human plaque, Colgate-Palmolive data, strain 1167",6.2 µg/mL
same,Minimum inhibitory Triclosan concentration,"Veillonella parvula; Fresh isolate from human plaque, Colgate-Palmolive data, strain 1459",2.3 µg/mL
same,Minimum inhibitory Triclosan concentration,"Veillonella parvula; Oral Bacteria, laboratory strain NCTC",5.4 µg/mL
same,Minimum inhibitory Triclosan concentration,[11]; strain 1426,<0.3 µg/mL
same,Minimum inhibitory Triclosan concentration,[11]; strain 1483,<0.3 µg/mL
same,Minimum inhibitory Triclosan concentration,Staphlococcus aureus; strain ATCC9144,0.05 µg/mL
same,Minimum inhibitory Triclosan concentration,Staphlococcus aureus; strain ATCC29213,<0.125 µg/mL
same,Minimum inhibitory Triclosan concentration,Staphlococcus aureus; strain NCTC11150,0.02 µg/mL
same,Minimum inhibitory Triclosan concentration,Staphlococcus aureus; strain NCTC12232,0.01 µg/mL
same,effectiveness against Staphylococcus epidermidis,[12],effectiveness
same,Minimum inhibitory Triclosan concentration,Salmonella enteritidis,0.1 µg/mL
same,Minimum inhibitory Triclosan concentration,Actinomyces naeslundi; laboratory strain 12104,1.0 µg/mL
same,Minimum inhibitory Triclosan concentration,Actinomyces naeslundi; laboratory strain A,1.0 µg/mL
same,Minimum inhibitory Triclosan concentration,"Fusobacterium nucleatum; Fresh isolate from human plaque, Colgate-Palmolive data, strain 1446",0.8 µg/mL
same,Minimum inhibitory Triclosan concentration,"Fusobacterium nucleatum; Oral Bacteria, laboratory strain NCTC10562",1.2 µg/mL
same,Minimum inhibitory Triclosan concentration,Pseudomonas aeruginosa; strain ATCC12055,>1000 µg/mL
same,Minimum inhibitory Triclosan concentration,Pseudomonas aeruginosa; strain NCTC8060,>1000 µg/mL
same,Minimum inhibitory Triclosan concentration,P. anaerobius; strain 580,0.6 µg/mL
same,Minimum inhibitory Triclosan concentration,P. anaerobius; strain 1198,2.3 µg/mL
same,Minimum inhibitory Triclosan concentration,"[13]; Fresh isolate from human plaque, Colgate-Palmolive data, strain 1041",0.8 µg/mL
same,Minimum inhibitory Triclosan concentration,"[13]; Fresh isolate from human plaque, Colgate-Palmolive data, strain 1431",0.8 µg/mL
same,Minimum inhibitory Triclosan concentration,"[13]; Oral Bacteria, laboratory strain NCTC9935",0.8 µg/mL
same,Minimum inhibitory Triclosan concentration,Actinomyces israeli,1.0 µg/mL
same,Minimum inhibitory Triclosan concentration,[14],5.0 µg/mL
same,Streptococcus mutans formation and adhesion,Streptococcus mutans [15],reduced Streptococcus mutans formation and adhesion
same,Minimum inhibitory Triclosan concentration,S. mitior; strain 1384,2.3 µg/mL
same,Minimum inhibitory Triclosan concentration,S. mitior; strain 1387,2.3 µg/mL
same,Minimum inhibitory Triclosan concentration,Lactobacilli,33.0 µg/mL
same,Minimum inhibitory Triclosan concentration,Bacteroides gingivalis,2.5 µg/mL
same,Minimum inhibitory Triclosan concentration,Steptococcus sobrinus,11.0 µg/mL
same,Minimum inhibitory Triclosan concentration,Streptococcus mitor; laboratory strain NCTC7864,0.8 µg/mL
same,Minimum inhibitory Triclosan concentration,Streptococcus mitor; laboratory strain NCTC10712,1.1 µg/mL
same,Minimum inhibitory Triclosan concentration,Candida albicans; strain A,10.0 µg/mL
same,Minimum inhibitory Triclosan concentration,Candida albicans; strain ATCC10259,3.0 µg/mL
same,Minimum inhibitory Triclosan concentration,P. acnes,2.3 µg/mL
